Assay results taken from US12514938B2, “Fibroblast activation protein targeting peptides” (PERSPECTIVE THERAPEUTICS, INC., priority 2023, dated 2026).
*1 amine or outer side, *2 acyl side, *3 side chain or, on linkers, in order; H or OH if unused. Where a SMILES comes first, the peptide text is derived from it. Bridges are numbered along the chain shown (N, C = ends). [ ]: non-standard residue; d: D form. The star is where a group is joined. X2 = NC(=O)CN1CCN(CC(=O)O)CCN(CC(=O)NCCOCCOCCC(=O)NCCSCc2cc(C[*:1])cc(C[*:2])c2)CCN(CC(=O)O)CC1; X1 = NC(=O)CN1CCN(CC(=O)O)CCN(CC(=O)*)CCN(CC(=O)O)CC1; mXylylene = c1cc(C[*:1])cc(C[*:2])c1; oXylylene = c1ccc(C[*:2])c(C[*:1])c1; 3Pal = N[C@@H](Cc1cccnc1)C(=O)O; PEG4 = NCCOCCOCCOCCOCCC(=O)O; PEG2 = NCCOCCOCCC(=O)O; Ahx = NCCCCCC(=O)O

Biological target: T1, Human Fibroblast Activation Protein (FAP) (Homo sapiens, UniProt Q12884)
T1 sequence (Q12884 1-760): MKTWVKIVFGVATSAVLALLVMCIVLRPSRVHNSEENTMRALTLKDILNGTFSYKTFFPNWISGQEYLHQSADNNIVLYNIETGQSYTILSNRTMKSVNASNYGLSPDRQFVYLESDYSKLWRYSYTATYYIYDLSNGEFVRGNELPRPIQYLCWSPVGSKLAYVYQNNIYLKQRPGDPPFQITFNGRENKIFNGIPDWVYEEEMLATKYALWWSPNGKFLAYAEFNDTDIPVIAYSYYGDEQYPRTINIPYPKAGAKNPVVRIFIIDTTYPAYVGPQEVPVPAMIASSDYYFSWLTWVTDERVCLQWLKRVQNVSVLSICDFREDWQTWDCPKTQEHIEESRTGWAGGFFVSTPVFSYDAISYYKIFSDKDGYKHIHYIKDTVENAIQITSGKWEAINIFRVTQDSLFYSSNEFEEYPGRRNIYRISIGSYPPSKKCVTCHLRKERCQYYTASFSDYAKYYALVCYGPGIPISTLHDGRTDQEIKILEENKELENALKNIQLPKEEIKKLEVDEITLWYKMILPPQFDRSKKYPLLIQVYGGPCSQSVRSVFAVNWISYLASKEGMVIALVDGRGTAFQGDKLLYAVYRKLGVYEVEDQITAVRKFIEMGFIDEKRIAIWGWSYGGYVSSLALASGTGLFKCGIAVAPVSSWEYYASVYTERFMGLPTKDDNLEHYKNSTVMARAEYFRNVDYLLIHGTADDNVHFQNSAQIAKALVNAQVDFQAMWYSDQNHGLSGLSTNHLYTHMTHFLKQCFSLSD
Experiment: Enzyme inhibition assay against human FAP (substrate Z-GP-AMC), Example 1
Assay type: biochemical
Settings: human FAP 5 ng/well, 50 μM Z-GP-AMC; Ki from IC50 by Cheng-Prusoff
Procedure: Binding Affinity Against Human Fibroblast Activation Protein (FAP)
An enzyme inhibition assay was performed to determine IC50 values and then the Cheng-Prusoff equation used to calculate the Ki given a known Km of the substrate Z-GP-AMC for FAP. To perform the assay, FAP (5 ng/well) and the test peptide at varying concentrations (i.e. 10^−6 to 10^−12) were incubated in a black 96-well plate for 10 minutes at RT on a shaker plate. Then, the substrate Z-GP-AMC was added to give a final concentration of 50 μM. The total reaction volume per well was 100 μL The reaction was allowed to incubate at RT on a shaker plate for 1 hour protected from light, and then fluorescence read with a BioTek Synergy LX plate reader at an ex/em (360/40 and 460/40). Experiments were performed in at least duplicate, and controls of buffer only, buffer and FAP enzyme, and buffer with substrate and FAP enzyme only were included for comparison. The buffer used for the assay was 50 mM Tris-HCl, 1M NaCl, and 1 mg/mL BSA, pH=7.5. Data was plotted in GraphPad Prism and non-linear regression used to calculate IC50 values. The compounds tested and Ki values of each were as follows: […]

Row | Ki [nM] | Molecule
1 | 0.54 | C[C@@H](O)[C@@H]1NC(=O)[C@@H](NC(=O)CCOCCOCCNC(=O)CN2CCN(CC(=O)O)CCN(CC(N)=O)CCN(CC(=O)O)CC2)CSCc2cccc(c2)CSC[C@@H](C(N)=O)NC(=O)[C@H](Cc2c[nH]c3ccccc23)NC(=O)[C@H](Cc2c[nH]c3ccccc23)NC(=O)[C@H](CCC(N)=O)NC(=O)[C@H](CCC(=O)O)NC(=O)[C@H](Cc2c[nH]c3ccccc23)NC(=O)[C@@H]2CCCN2C1=O [VMT-FAP-2-83, PSC-PEG2-[C(mXdB)TPWEQWWC]-NH2] ({X1-PEG2}-CTPWEQWWC-NH2; linker 1-9 via mXylylene)
2 | 0.76 | C[C@@H](O)[C@@H]1NC(=O)[C@@H](NC(=O)CCOCCOCCNC(=O)CN2CCN(CC(=O)O)CCN(CC(N)=O)CCN(CC(=O)O)CC2)CSCc2ccccc2CSC[C@@H](C(N)=O)NC(=O)[C@H](Cc2c[nH]c3ccccc23)NC(=O)[C@H](Cc2c[nH]c3ccccc23)NC(=O)[C@H](CCC(N)=O)NC(=O)[C@H](CCC(=O)O)NC(=O)[C@H](Cc2ccccc2)NC(=O)[C@@H]2CCCN2C1=O [VMT-FAP-2-36, PSC-PEG2-[C(oXdB)TPFEQWWC]-NH2] ({X1-PEG2}-CTPFEQWWC-NH2; linker 1-9 via oXylylene)
3 | 0.19 | C[C@@H](O)[C@@H]1NC(=O)[C@@H](NC(=O)[C@H](CC(=O)O)NC(=O)CCOCCOCCNC(=O)CN2CCN(CC(=O)O)CCN(CC(N)=O)CCN(CC(=O)O)CC2)CSCc2ccccc2CSC[C@@H](C(N)=O)NC(=O)[C@H](Cc2c[nH]c3ccccc23)NC(=O)[C@H](Cc2c[nH]c3ccccc23)NC(=O)[C@H](CCC(N)=O)NC(=O)[C@H](CCC(=O)O)NC(=O)[C@H](Cc2ccccc2)NC(=O)[C@@H]2CCCN2C1=O [VMT-FAP-2-41, PSC-PEG2-D-[C(oXdB)TPFEQWWC]-NH2] ({X1-PEG2}-DCTPFEQWWC-NH2; linker 2-10 via oXylylene)
4 | 0.01 | C[C@@H](O)[C@@H]1NC(=O)[C@@H](NC(=O)CCOCCOCCOCCOCCNC(=O)CN2CCN(CC(=O)O)CCN(CC(N)=O)CCN(CC(=O)O)CC2)CSCc2ccccc2CSC[C@@H](C(N)=O)NC(=O)[C@H](Cc2c[nH]c3ccccc23)NC(=O)[C@H](Cc2c[nH]c3ccccc23)NC(=O)[C@H](CCC(N)=O)NC(=O)[C@H](CCC(=O)O)NC(=O)[C@H](Cc2c[nH]c3ccccc23)NC(=O)[C@@H]2CCCN2C1=O [VMT-FAP-2-69, PSC-PEG4-[C(oXdB)TPWEQWWC]-NH2] ({X1-PEG4}-CTPWEQWWC-NH2; linker 1-9 via oXylylene)
5 | 11.2 | CC(=O)N[C@@H](CO)C(=O)N[C@H]1CSCc2ccccc2CSC[C@@H](C(N)=O)NC(=O)[C@H](Cc2c[nH]c3ccccc23)NC(=O)[C@H](Cc2c[nH]c3ccccc23)NC(=O)[C@H](Cc2c[nH]cn2)NC(=O)[C@H](CCC(=O)O)NC(=O)[C@H](Cc2ccccc2)NC(=O)[C@@H]2CCCN2C(=O)[C@H]([C@@H](C)O)NC1=O [VMT-FAP-1-101, Ac-S[C(oXdB)TPFEHWWC]-NH2] (Ac-SCTPFEHWWC-NH2; linker 2-10 via oXylylene)
6 | 0.61 | C[C@@H](O)[C@@H]1NC(=O)[C@@H](NC(=O)[C@H](CO)NC(=O)CCOCCOCCNC(=O)CN2CCN(CC(=O)O)CCN(CC(N)=O)CCN(CC(=O)O)CC2)CSCc2ccccc2CSC[C@@H](C(N)=O)NC(=O)[C@H](Cc2c[nH]c3ccccc23)NC(=O)[C@H](Cc2c[nH]c3ccccc23)NC(=O)[C@H](CCC(N)=O)NC(=O)[C@H](CCC(=O)O)NC(=O)[C@H](Cc2cccnc2)NC(=O)[C@@H]2CCCN2C1=O [VMT-FAP-2-62, PCS-PEG2-S-[C(oXdB)TP3-PalEQWWC]-NH2] ({X1-PEG2}-SCTP[3Pal]EQWWC-NH2; linker 2-10 via oXylylene)
7 | 0.29 | C[C@@H](O)[C@@H]1NC(=O)[C@@H](NC(=O)[C@H](CO)NC(=O)CCOCCOCCNC(=O)CN2CCN(CC(=O)O)CCN(CC(N)=O)CCN(CC(=O)O)CC2)CSCc2ccccc2CSC[C@@H](C(N)=O)NC(=O)[C@H](Cc2c[nH]c3ccccc23)NC(=O)[C@H](Cc2c[nH]c3ccccc23)NC(=O)[C@H](CCC(N)=O)NC(=O)[C@H](CCC(=O)O)NC(=O)[C@H](Cc2c[nH]c3ccccc23)NC(=O)[C@@H]2CCCN2C1=O [VMT-FAP-2-42, PSC-PEG2-S-[C(oXdB)TPWEQWWC]-NH2] ({X1-PEG2}-SCTPWEQWWC-NH2; linker 2-10 via oXylylene)
8 | 2.82 | CC(=O)N[C@@H](CCCNC(=N)N)C(=O)N[C@H]1CSCc2ccccc2CSC[C@@H](C(N)=O)NC(=O)[C@H](Cc2c[nH]c3ccccc23)NC(=O)[C@H](Cc2c[nH]c3ccccc23)NC(=O)[C@H](CCC(N)=O)NC(=O)[C@H](CCC(=O)O)NC(=O)[C@H](Cc2ccccc2)NC(=O)[C@@H]2CCCN2C(=O)[C@H]([C@@H](C)O)NC1=O [VMT-FAP-1-13, Ac-R[C(oXdB)TPFEQWWC]-NH2] (Ac-RCTPFEQWWC-NH2; linker 2-10 via oXylylene)
9 | 10.7 | CC(=O)N[C@@H](CC(N)=O)C(=O)N[C@H]1CSCc2ccccc2CSC[C@@H](C(N)=O)NC(=O)[C@H](Cc2c[nH]c3ccccc23)NC(=O)[C@H](Cc2c[nH]c3ccccc23)NC(=O)[C@H](CCC(N)=O)NC(=O)[C@H](CCC(=O)O)NC(=O)[C@H](Cc2ccccc2)NC(=O)[C@@H]2CCCN2C(=O)[C@H]([C@@H](C)O)NC1=O [VMT-FAP-1-17, Ac-N[C(oXdB)TPFEQWWC]-NH2] (Ac-NCTPFEQWWC-NH2; linker 2-10 via oXylylene)
10 | 0.04 | C[C@@H](O)[C@@H]1NC(=O)[C@@H](NC(=O)[C@H](CO)NC(=O)CCOCCOCCNC(=O)CN2CCN(CC(=O)O)CCN(CC(N)=O)CCN(CC(=O)O)CC2)CSCc2ccccc2CSC[C@@H](C(N)=O)NC(=O)[C@H](Cc2c[nH]c3ccccc23)NC(=O)[C@H](Cc2c[nH]c3ccccc23)NC(=O)[C@H](CCC(N)=O)NC(=O)[C@H](CCC(=O)O)NC(=O)[C@H](Cc2ccccc2)NC(=O)[C@@H]2CCCN2C1=O [VMT-FAP-2-30, PSC-PEG2-S-[C(oXdB)TPFEQWWC]-NH2] ({X1-PEG2}-SCTPFEQWWC-NH2; linker 2-10 via oXylylene)
11 | 1.12 | CC(=O)N[C@@H](CO)C(=O)N[C@H]1CSCc2cc(CSCCNC(=O)CCOCCOCCNC(=O)CN3CCN(CC(=O)O)CCN(CC(N)=O)CCN(CC(=O)O)CC3)cc(c2)CSC[C@@H](C(N)=O)NC(=O)[C@H](Cc2c[nH]c3ccccc23)NC(=O)[C@H](Cc2c[nH]c3ccccc23)NC(=O)[C@H](CCC(N)=O)NC(=O)[C@H](CCC(=O)O)NC(=O)[C@H](Cc2c[nH]c3ccccc23)NC(=O)[C@@H]2CCCN2C(=O)[C@H]([C@@H](C)O)NC1=O [VMT-FAP-2-55, Ac-S-[C(mXtB(CA-PEG2-PSC))TPWEQWWC]-NH2] (Ac-SCTPWEQWWC-NH2; linker 2-10 via X2)
12 | 0.64 | C[C@@H](O)[C@@H]1NC(=O)[C@@H](NC(=O)CCCCCNC(=O)CN2CCN(CC(=O)O)CCN(CC(N)=O)CCN(CC(=O)O)CC2)CSCc2ccccc2CSC[C@@H](C(N)=O)NC(=O)[C@H](Cc2c[nH]c3ccccc23)NC(=O)[C@H](Cc2c[nH]c3ccccc23)NC(=O)[C@H](CCC(N)=O)NC(=O)[C@H](CCC(=O)O)NC(=O)[C@H](Cc2c[nH]c3ccccc23)NC(=O)[C@@H]2CCCN2C1=O [VMT-FAP-2-70, PSC-6AHA-[C(oXdB)TPWEQWWC]-NH2] ({X1-Ahx}-CTPWEQWWC-NH2; linker 1-9 via oXylylene)
13 | 0.07 | C[C@@H](O)[C@@H]1NC(=O)[C@@H](NC(=O)[C@H](CO)NC(=O)CCOCCOCCNC(=O)CN2CCN(CC(=O)O)CCN(CC(N)=O)CCN(CC(=O)O)CC2)CSCc2ccccc2CSC[C@@H](C(N)=O)NC(=O)[C@H](Cc2c[nH]c3ccccc23)NC(=O)[C@H](Cc2c[nH]c3ccccc23)NC(=O)[C@H](CCC(=O)O)NC(=O)[C@H](CCC(=O)O)NC(=O)[C@H](Cc2ccccc2)NC(=O)[C@@H]2CCCN2C1=O [VMT-FAP-2-43, PSC-PEG2-S-[C(oXdB)TPFEEWWC]-NH2] ({X1-PEG2}-SCTPFEEWWC-NH2; linker 2-10 via oXylylene)
14 | 0.45 | C[C@H](N)C(=O)N[C@H]1CSCc2ccccc2CSC[C@@H](C(N)=O)NC(=O)[C@H](Cc2c[nH]c3ccccc23)NC(=O)[C@H](Cc2c[nH]c3ccccc23)NC(=O)[C@H](CCC(N)=O)NC(=O)[C@H](CCC(=O)O)NC(=O)[C@H](Cc2ccccc2)NC(=O)[C@@H]2CCCN2C(=O)[C@H]([C@@H](C)O)NC1=O [VMT-FAP-2-19, A[C(oXdB)TPFEQWWC]-NH2] (H-ACTPFEQWWC-NH2; linker 2-10 via oXylylene; N-terminus assumed)
15 | 4.59 | NODA-PEG2-[C(oXdB)TPWEQWWC]-NH2 [VMT-FAP-2-77]
